According to PubChem BioAssay AID2060896 (Molecular Pharmacology Branch, DTP, NCI, 2025):

Tested on: 941728-121-R-J1-PDC complex spheroid viability
Assay: Anticancer human tumor 941728-121-R-J1-PDC patient-derived lung adenocarcinoma cell line growth inhibition [RAS]
Conditions: for IC50: curve of first compound; for viability, T/C: stronger effect = lower value
Description: RAS pathway inhibitors in Combinations in Complex Spheroids
A high-throughput screen of multi-cell type tumor spheroids was designed to identify active combinations of RAS pathway inhibitors and targeted small molecules. Complex spheroids include a stromal component modeled by human endothelial cells (HUVEC) and fibroblasts modeled by human mesenchymal stem cells (MSCs). The concentration ranges selected for each drug and investigational agent were based upon clinically achievable concentrations if the clinical Cmax of the agent was known.
Compounds. The drugs and investigational agents: abemaciclib (NSC768073), cobimetinib (NSC768068), divarasib (GDC6063, NSC841802), docetaxel (NSC628503), GDC-1971 (RLY-1971, NSC841576), gemcitabine (NSC613327), inavolisib (NSC800729), ipatasertib (NSC767898), KB-0742 (NSC834161), MRTX-1133 (NSC836407), osimertinib (NSC779217), RMC-4630 (NSC839698), RMC-6236 (NSC851965), RMC-6291 (NSC852671), Ro-3306 (NSC812927), sapanisertib (NSC764658), SN-38 (NSC673596), staurosporine (NSC755774), SY5609 (NSC837396), and tovorafenib (DAY101, NSC766906), were obtained from the National Cancer Institute (NCI) Developmental Therapeutics Program Chemical Repository. The FDA-approved anticancer drug set is available from the NCI Developmental Therapeutics Program. […] The stock solutions were prepared in dimethyl sulfoxide (DMSO, Sigma-Aldrich, St. Louis, MO, cat. D2650) at 800-fold the tested concentration and stored at -70 degrees C prior to their use. All drugs and investigational agents were tested over a range starting from a high concentration at or near the clinical Cmax and decreasing in half-log increments. If the clinical Cmax for an agent had not been determined, the highest concentration tested was 10 microM.
Cell Culture. All cells were maintained in an incubator at 37 degrees C and 5% CO2 with 95% humidity. The PDC lines were cultured according to standard operating procedures established by the NCI PDMR. All PDCs were thawed and cultured in Matrigel-coated flasks prepared with a working solution of 1X Ham's F-12 nutrient mix, without supplementation (Invitrogen, Waltham, MA, cat. 11765054), 100 U/mL penicillin-streptomycin (Invitrogen, cat. 15140122), and 2.5% Matrigel (Corning Inc., Corning, NY, cat. 354248) for the first three passages. The 362531-283-R-J2-PDC and 782815-120-R-J1-PDC lines were cultured in 6C/Colon 1B media, which includes advanced DMEM/F-12 (Thermo Fisher Scientific, cat. 12634028), 10 mM HEPES (Thermo Fisher Scientific, cat. 15630080), 1X GlutaMAX supplement (Thermo Fisher Scientific, cat. 35050061), 0.1 mg/mL primocin (InvivoGen, San Diego, CA, cat. ant-pm-2), 10% defined fetal bovine serum, heat inactivated (HyClone Laboratories Inc., Logan, UT, cat. SH30070.03HI), 50% L-WRN conditioned media (ATCC, cat. CRL-3276), 1.25 mM N-Acetyl-L-cysteine (Sigma-Aldrich, cat. A9165), 10 mM nicotinamide (Sigma-Aldrich, cat. N0636), 1X B-27 supplement (Thermo Fisher Scientific, cat. 17504044), 1X N-2 supplement (Thermo Fisher Scientific, cat. 17502048), 50 ng/mL human EGF (Thermo Fisher Scientific, cat. PHG0311), and 10 microM Y-27632 dihydrochloride (Tocris Bioscience, cat. 1254). The K12877-001-R-J1-PDC line was cultured in 6I media, which includes all 6C/Colon 1B media plus 10 ng/mL human FGF-10 (PeproTech, cat. 100-26), 1 ng/mL human FGF-2 (PeproTech, cat. 100-18B), 1 µM prostaglandin E2 (Tocris Bioscience, cat. 2296), […] hydrocortisone (Sigma-Aldrich, cat. H4001), and […] bovine insulin (Sigma-Aldrich, cat. I6634). The K86415-001-R-J1-PDC line was cultured in 6D media, which includes all 6C/Colon 1B media components minus the L-WRN conditioned media. The 485176-168-R4-J1-PDC was cultured in PANC media, which includes all 6C/Colon 1B media plus 100 ng/mL human FGF-10 (PeproTech, cat. 100-26), 500 nM SB-431542 (Selleckchem, cat. S1067), and 10 nM gastrin (Tocris Bioscience, cat. 3006). […]

[1] = second compound 0.0316 µM, first compound 0.0316 µM
[2] = second compound 0.0316 µM, first compound 0.1 µM
[3] = second compound 0.0316 µM, first compound 0.316 µM
[4] = second compound 0.0316 µM, first compound 1 µM
[5] = second compound 0.1 µM, first compound 0.0316 µM
[6] = second compound 0.1 µM, first compound 0.1 µM
[7] = second compound 0.1 µM, first compound 0.316 µM
[8] = second compound 0.1 µM, first compound 1 µM
[9] = second compound 0.316 µM, first compound 0.0316 µM
[10] = second compound 0.316 µM, first compound 0.1 µM
[11] = second compound 0.316 µM, first compound 0.316 µM
[12] = second compound 0.316 µM, first compound 1 µM
[13] = second compound 1 µM, first compound 0.0316 µM
[14] = second compound 1 µM, first compound 0.1 µM
[15] = second compound 1 µM, first compound 0.316 µM
[16] = second compound 1 µM, first compound 1 µM
[17] = second compound 3.16 µM, first compound 0.0316 µM
[18] = second compound 3.16 µM, first compound 0.1 µM
[19] = second compound 3.16 µM, first compound 0.316 µM
[20] = second compound 3.16 µM, first compound 1 µM
[21] = second compound 10 µM, first compound 0.0316 µM
[22] = second compound 10 µM, first compound 0.1 µM
[23] = second compound 10 µM, first compound 0.316 µM
[24] = second compound 10 µM, first compound 1 µM
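Further: spheroids exposed to compounds for 7 days before readout.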
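Wherever viability, T/C is given: 100% = DMSO vehicle control viability.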

CC(Nc1ccc2c(c1)OCCn1cc(N3C(=O)OCC3C(F)F)nc1-2)C(N)=O (centres undefined) + C#Cc1c(F)ccc2cc(O)cc(-c3ncc4c(N5CC6CCC(C5)N6)nc(OCC56CCCN5CC(F)C6)nc4c3F)c12
IC50 (second compound 0.0316 µM): 75.7 nM | IC50 (second compound 0.1 µM): 49.4 nM | IC50 (second compound 0.316 µM): < 31.6 nM | IC50 (second compound 1 µM): < 31.6 nM | IC50 (second compound 3.16 µM): < 31.6 nM | IC50 (second compound 10 µM): < 31.6 nM | viability, T/C [1]: 64.5% | viability, T/C [2]: 44.4% | viability, T/C [3]: 37% | viability, T/C [4]: 35.9% | viability, T/C (second compound 0.0316 µM, first compound 3.16 µM): 29% | viability, T/C (second compound 0.0316 µM, first compound 10 µM): 29.6% | viability, T/C [5]: 56.9% | viability, T/C [6]: 39.5% | viability, T/C [7]: 33.2% | viability, T/C [8]: 28.1% | viability, T/C (second compound 0.1 µM, first compound 3.16 µM): 31.3% | viability, T/C (second compound 0.1 µM, first compound 10 µM): 32.5% | viability, T/C [9]: 40.3% | viability, T/C [10]: 38.1% | viability, T/C [11]: 33.4% | viability, T/C [12]: 29.9% | viability, T/C (second compound 0.316 µM, first compound 3.16 µM): 30.4% | viability, T/C (second compound 0.316 µM, first compound 10 µM): 23.1% | viability, T/C [13]: 33.8% | viability, T/C [14]: 29.8% | viability, T/C [15]: 27.6% | viability, T/C [16]: 27.8% | viability, T/C (second compound 1 µM, first compound 3.16 µM): 27.4% | viability, T/C (second compound 1 µM, first compound 10 µM): 25.9% | viability, T/C [17]: 28.3% | viability, T/C [18]: 28.4% | viability, T/C [19]: 28% | viability, T/C [20]: 23.4% | viability, T/C (second compound 3.16 µM, first compound 3.16 µM): 26.2% | viability, T/C (second compound 3.16 µM, first compound 10 µM): 23.2% | viability, T/C [21]: 22.8% | viability, T/C [22]: 21.2% | viability, T/C [23]: 19.5% | viability, T/C [24]: 18.5% | viability, T/C (second compound 10 µM, first compound 3.16 µM): 17.4% | viability, T/C (second compound 10 µM, first compound 10 µM): 15.4%

O=C(c1ccc(F)c(F)c1Nc1ccc(I)cc1F)N1CC(O)([C@@H]2CCCCN2)C1 + C#Cc1c(F)ccc2cc(O)cc(-c3ncc4c(N5CC6CCC(C5)N6)nc(OCC56CCCN5CC(F)C6)nc4c3F)c12
IC50 (second compound 0.0316 µM): 14.5 nM | IC50 (second compound 0.1 µM): 9.8 nM | IC50 (second compound 0.316 µM): < 3.16 nM | IC50 (second compound 1 µM): < 3.16 nM | IC50 (second compound 3.16 µM): < 3.16 nM | IC50 (second compound 10 µM): < 3.16 nM | viability, T/C (second compound 0.0316 µM, first compound 0.00316 µM): 71% | viability, T/C (second compound 0.0316 µM, first compound 0.01 µM): 55.9% | viability, T/C [1]: 37.7% | viability, T/C [2]: 31.2% | viability, T/C [3]: 29.6% | viability, T/C [4]: 24.4% | viability, T/C (second compound 0.1 µM, first compound 0.00316 µM): 70.6% | viability, T/C (second compound 0.1 µM, first compound 0.01 µM): 49.2% | viability, T/C [5]: 37% | viability, T/C [6]: 31% | viability, T/C [7]: 28.3% | viability, T/C [8]: 23.9% | viability, T/C (second compound 0.316 µM, first compound 0.00316 µM): 47.9% | viability, T/C (second compound 0.316 µM, first compound 0.01 µM): 44.9% | viability, T/C [9]: 31.9% | viability, T/C [10]: 29% | viability, T/C [11]: 30.5% | viability, T/C [12]: 21.6% | viability, T/C (second compound 1 µM, first compound 0.00316 µM): 33.8% | viability, T/C (second compound 1 µM, first compound 0.01 µM): 29.7% | viability, T/C [13]: 31.9% | viability, T/C [14]: 29.1% | viability, T/C [15]: 29.2% | viability, T/C [16]: 20.8% | viability, T/C (second compound 3.16 µM, first compound 0.00316 µM): 24.5% | viability, T/C (second compound 3.16 µM, first compound 0.01 µM): 28.5% | viability, T/C [17]: 27.4% | viability, T/C [18]: 25.7% | viability, T/C [19]: 21.9% | viability, T/C [20]: 19.1% | viability, T/C (second compound 10 µM, first compound 0.00316 µM): 22% | viability, T/C (second compound 10 µM, first compound 0.01 µM): 18.8% | viability, T/C [21]: 17.7% | viability, T/C [22]: 18.1% | viability, T/C [23]: 15.5% | viability, T/C [24]: 12.2%
